Results from patent publication US20230028293A1, “MULTIPLE MYELOMA COMBINATION THERAPIES BASED ON PROTEIN TRANSLATION INHIBITORS AND IMMUNOMODULATORS” (The Regents of the University of Colorado, a body corporate, priority 2019, published 2023).

Key:
Assay type in all cases: cell-based
MM cell lines = assay: Two-drug combination matrix in MM cell lines, ZIP synergy; conditions: for ZIP δ-score for synergy with omacetaxine: BET inhibitor with omacetaxine; for synergy of translation inhibitor with pomalidomide: MM.1S and H929 cells
[1] = test system: protein translation in MM cell lines and primary MM cells; assay: OP-Puro protein translation assay in vitro; conditions: omacetaxine 50 nM 2.5 h, bortezomib 6 h, 24 h, 48 h
Description: To examine whether myeloma cells depend on inherently high protein synthesis, the O-Propargyl-puromycin (OP-Puro) assay was used to measure the rate of amino-acid incorporation into translating ribosomes by flow cytometry.
Protein synthesis levels were determined in vitro utilizing the puromycin analog O-propargyl-puromycin (OP-Puro) in the protein synthesis assay kit (Cayman Chemical) according to manufacturer instructions. For in vivo protein synthesis, engrafted NSG mice were injected IP with 500 μg puromycin (Gibco), then euthanized after 1.5 h, marrow was flushed, and cells stained with anti-puromycin antibody (12D10, Alexa-488, Millipore Sigma), followed by flow cytometry.

MM1.S cells = assay: Timecourse of apoptosis and cell death by Annexin V and DAPI flow cytometry
Description: FIG. 2A depicts the timecourse of induction of apoptosis and cell death by omacetaxine in MM1.S cells as measured by Annexin V and DAPI staining by flow cytometry.
FIG. 10A depicts the timecourse of induction of apoptosis and cell death by pomalidomide in MM1.S cells as measured by annexin V and DAPI staining by flow cytometry.

For CCS(=O)(=O)Nc1ccc(Oc2ccc(F)cc2F)c(-c2cn(C)c(=O)c3[nH]ccc23)c1 [ABBV-075], the “ZIP δ-score for synergy with pomalidomide” value (MM cell lines; ABBV-075 with pomalidomide, MM.1S cell line) was 6.597 and the “ZIP δ-score for synergy with omacetaxine” value (MM cell lines; MM.1S cell line) was 12.02.

For Cc1sc2c(c1C)C(c1ccc(Cl)cc1)=N[C@@H](CC(=O)OC(C)(C)C)c1nnc(C)n1-2 [JQ1], the “ZIP δ-score for synergy with omacetaxine” value (MM cell lines; MM.1S cell line) was 17.56 and the “ZIP δ-score for synergy with pomalidomide” value (MM cell lines; JQ1 100 nM with pomalidomide 1.25 μM, U266, 96 h) was 21.18.

For Cc1sc2c(c1C)C(c1ccc(Cl)cc1)=N[C@@H](CC(=O)Nc1ccc(O)cc1)c1nnc(C)n1-2 [OTX015], the “ZIP δ-score for synergy with omacetaxine” value (MM cell lines; MM.1S cell line) was 7.64 and the “ZIP δ-score for synergy with pomalidomide” value (MM cell lines; OTX015 with pomalidomide, MM cell lines) was 1.84.

COc1ccc(C[C@H]2NC[C@H](O)[C@H]2OC(C)=O)cc1 [anisomycin] was tested, and the “synergy of translation inhibitor with pomalidomide” value (“synergy of translation inhibitor” below) (MM cell lines) was “synergistic”.

For CC(C)C[C@H](NC(=O)[C@H](Cc1ccccc1)NC(=O)c1cnccn1)B(O)O [bortezomib], the “ability to inhibit translation in myeloma cell lines” value [1] was “did not occur” and the “ability to inhibit translation in myeloma cell lines” value ([1]; listed as Boitezomib) was “did not change translation levels”.

With C[C@@H]1C[C@@H]([C@H](O)CC2CC(=O)NC(=O)C2)C(=O)[C@@H](C)C1 [cycloheximide] the “synergy of translation inhibitor” value (MM cell lines) was “synergistic”.

For C/C(=C\[C@H](C)C(=O)C[C@H](O)CC1CC(=O)NC(=O)C1)[C@@H]1OC(=O)/C=C/CC/C=C/C=C\[C@@H]1C [lactimidomycin], the “synergy of translation inhibitor” value (MM cell lines) was “synergistic”.

In the case of Nc1cccc2c1C(=O)N(C1CCC(=O)NC1=O)C2=O (stereo not shown) [pomalidomide], the “time at which cell death began” value (MM1.S cells) is reported as 24 h and the “time at which induction of apoptosis started” value (MM1.S cells) is reported as 24 h.
